Source: ChEMBL document CHEMBL1201862, “PubChem BioAssay data set” (2004)
Counter-ions that a name gives are not always drawn.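 Where inhibition never reached the appropriate level, the endpoint shown equals the highest concentration tested. Otherwise, values were interpolated linearly from a five-concentration, 48-hour dose response in 96-well plates. GI50 is the concentration that inhibits growth by half.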 Calls of active or inactive are those of the source. Rule as the data show it: active = GI50 up to about 1.1 µM and inactive = higher.

Columns and labels:
Assay in all cases: NCI anticancer screen, dose series, 48 h
[1] = system: A498
[2] = system: A549
[3] = system: ACHN
[4] = system: CAKI-1
[5] = system: CCRF-CEM
[6] = system: COLO 205
[7] = system: DMS-114
[8] = system: DMS-273
[9] = system: EKVX
[10] = system: HCT-116
[11] = system: HCT-15
[12] = system: HL-60
[13] = system: HOP-18
[14] = system: HOP-62
[15] = system: HOP-92
[16] = system: HT-29
[17] = system: Hs-578T
[18] = system: IGROV-1
[19] = system: K562
[20] = system: KM-20L2
[21] = system: KM12
[22] = system: LXFL 529
[23] = system: M19-MEL
[24] = system: MCF7
[25] = system: MDA-MB-231
[26] = system: MDA-MB-435
[27] = system: MOLT-4
[28] = system: Malme-3M
[29] = system: NCI-H226
[30] = system: NCI-H23
[31] = system: NCI-H460
[32] = system: NCI-H522
[33] = system: NCI/ADR-RES
[34] = system: OVCAR-3
[35] = system: OVCAR-4
[36] = system: OVCAR-5
[37] = system: PC-3
[38] = system: RPMI-8226
[39] = system: RXF 393
[40] = system: RXF 631
[41] = system: SF-268
[42] = system: SF-295
[43] = system: SF-539
[44] = system: SK-MEL-28
[45] = system: SK-MEL-5
[46] = system: SN12C
[47] = system: SNB-19
[48] = system: SNB-75
[49] = system: SNB-78
[50] = system: T47D
[51] = system: UACC-257
[52] = system: XF498
[53] = system: 786-0
[54] = system: DLD-1
[55] = system: LOX IMVI
[56] = system: M14
[57] = system: OVCAR-8
[58] = system: SK-OV-3
[59] = system: SR
[60] = system: SW-620
[61] = system: TK-10
[62] = system: U-251
[63] = system: UACC-62
[64] = system: UO-31
[65] = system: HCC 2998
[66] = system: SK-MEL-2

Measured: GI50

CC[C@@]1(O)C(=O)OCc2c1cc1n(c2=O)Cc2cc3c(CN(C)C)c(O)ccc3nc2-1 [TOPOTECAN HYDROCHLORIDE]
395 nM: [11]
active: [1] 110 nM | [2] 47.5 nM | [3] 23.7 nM | [4] 15 nM | [5] 12.5 nM | [6] 293 nM | [7] 18.7 nM | [8] 19.1 nM | [9] 333 nM | [10] 40.8 nM | [12] 26.8 nM | [13] 254 nM | [14] 12.5 nM | [15] 31.8 nM | [16] 132 nM | [17] 1100 nM | [18] 141 nM | [19] 59.2 nM | [20] 146 nM | [21] 518 nM | [23] 64.9 nM | [24] 14.9 nM | [26] 159 nM | [27] 12.5 nM | [28] 188 nM | [29] 22.5 nM | [30] 21.7 nM | [31] 16.3 nM | [32] 30.6 nM | [33] 193 nM | [34] 240 nM | [35] 412 nM | [36] 121 nM | [37] 77.1 nM | [38] 276 nM | [39] 39.5 nM | [40] 375 nM | [41] 14.7 nM | [42] 14.8 nM | [43] 16.8 nM | [44] 239 nM | [45] 32.5 nM | [46] 21.4 nM | [47] 17.9 nM | [48] 21.5 nM | [50] 5.71 nM | [51] 83.4 nM | [52] 38.7 nM
inactive: [22] 2290 nM | [25] 2250 nM | [49] 4710 nM

O=[N+]([O-])c1cc(C(F)(F)F)cc([N+](=O)[O-])c1CCl
1580 nM: [11]
active: [5] 99.3 nM | [7] 520 nM | [10] 897 nM | [19] 180 nM | [55] 82.6 nM | [22] 228 nM | [56] 530 nM | [27] 248 nM | [32] 328 nM | [45] 456 nM | [59] 388 nM | [60] 429 nM | [63] 336 nM
inactive: [53] 3140 nM | [1] 18600 nM | [2] 9530 nM | [3] 14500 nM | [4] 3150 nM | [6] 2130 nM | [54] 1830 nM | [8] 1230 nM | [9] 6810 nM | [12] 1310 nM | [13] 1930 nM | [14] 16100 nM | [15] 4900 nM | [16] 2140 nM | [18] 2320 nM | [20] 3980 nM | [21] 2230 nM | [23] 1570 nM | [28] 3230 nM | [29] 1570 nM | [30] 1690 nM | [31] 5780 nM | [34] 5240 nM | [35] 1630 nM | [36] 5300 nM | [57] 2140 nM | [38] 1160 nM | [39] 1730 nM | [40] 2800 nM | [41] 4090 nM | [42] 5780 nM | [43] 4810 nM | [44] 4840 nM | [58] 5730 nM | [46] 1550 nM | [47] 7350 nM | [48] 4500 nM | [49] 4690 nM | [61] 8530 nM | [62] 3610 nM | [51] 3720 nM | [64] 7870 nM | [52] 8970 nM

COc1cccc2c1C(=O)c1c(O)c3c(c(O)c1C2=O)C[C@@](O)(C(=O)CO)CC3OC1CC(NCCCC(OC(C)=O)OC(C)=O)C(O)C(C)O1 (stereo not given in full)
2.25 nM: [11]
active: [53] 2.19 nM | [1] 1.9 nM | [2] 3.33 nM | [3] 2.43 nM | [4] 2.96 nM | [5] 2.12 nM | [54] 2.3 nM | [7] 7.03 nM | [8] < 0.1 nM | [9] 2.77 nM | [65] 2.28 nM | [12] 2.12 nM | [13] 4.13 nM | [14] 1.65 nM | [15] 2.77 nM | [16] 0.711 nM | [18] 6 nM | [19] 0.512 nM | [20] 0.912 nM | [21] 2.79 nM | [55] 0.233 nM | [22] 2.62 nM | [56] 0.867 nM | [23] 2.61 nM | [27] 2.24 nM | [28] 2.09 nM | [29] 1.53 nM | [30] 1.82 nM | [31] 0.895 nM | [32] 1.29 nM | [34] 4.5 nM | [35] 1.51 nM | [36] 2.67 nM | [57] 1.96 nM | [38] 3.22 nM | [39] 1.72 nM | [40] < 0.1 nM | [41] 3.05 nM | [42] 1.47 nM | [43] 2.29 nM | [44] 2.59 nM | [66] 1.92 nM | [58] 5.01 nM | [46] 1.52 nM | [47] 2.46 nM | [48] 1.5 nM | [49] 2.24 nM | [59] < 0.1 nM | [60] 2.02 nM | [61] 6.41 nM | [62] 3.08 nM | [51] 2.69 nM | [63] 0.861 nM | [64] 1.51 nM | [52] 1.83 nM
